Source: PubChem BioAssay AID1259407 (Chemical Carcinogenesis Research Information System (CCRIS), 2018)
Activity calls are given as the source filed them. No rule for the calls is given here.

System: CCRIS mutagenicity, Ames/micronucleus/aberration tests
Assay: CCRIS mutagenicity studies
[1] = Test System: AMES SALMONELLA TYPHIMURIUM, Strain/Indicator: TA98, Metabolic Activation: RAT, LIVER, S-9, AROCLOR 1254, Method: STANDARD PLATE
[2] = Test System: AMES SALMONELLA TYPHIMURIUM, Strain/Indicator: TA100, Metabolic Activation: RAT, LIVER, S-9, AROCLOR 1254, Method: STANDARD PLATE

Measured: mutagenic call

c1ccc2c(c1)ccc1cc3c(ccc4ccncc43)cc12
active: Test System: AMES SALMONELLA TYPHIMURIUM, Strain/Indicator: TA98, Metabolic Activation: RAT, LIVER, S-9, AROCLOR 1254 (10%), Method: STANDARD PLATE active; positive | [1] active; positive | Test System: AMES SALMONELLA TYPHIMURIUM, Strain/Indicator: TA100, Metabolic Activation: RAT, LIVER, S-9, 1254 (10%), Method: STANDARD PLATE active; positive | [2] active; positive
inactive: Test System: AMES SALMONELLA TYPHIMURIUM, Strain/Indicator: TA98, Metabolic Activation: NONE, Method: STANDARD PLATE inactive; negative | Test System: AMES SALMONELLA TYPHIMURIUM, Strain/Indicator: TA100, Metabolic Activation: NONE, Method: STANDARD PLATE inactive; negative

COc1cc2c(c3oc4cccc(O)c4c(=O)c13)[C@@H]1C=CO[C@@H]1O2
active: End Point: IN VITRO MICRONUCLEUS, Test System: AHH-1 CELLS, Metabolic Activation: NONE active; positive | End Point: IN VITRO MICRONUCLEUS, Test System: MCL-5 CELLS, Metabolic Activation: NONE active; positive | Test System: AMES SALMONELLA TYPHIMURIUM, Strain/Indicator: TA98, Metabolic Activation: RAT, LIVER, MICROSOMES, PHENOBARBITAL, Method: STANDARD PLATE active; positive | [1] active; positive | Test System: AMES SALMONELLA TYPHIMURIUM, Strain/Indicator: TA98, Metabolic Activation: RAT, LIVER, S-9, KC500 OR PHENOBARBITAL, Method: LIQUID SUSPENSION active; positive | Test System: AMES SALMONELLA TYPHIMURIUM, Strain/Indicator: TA100, Metabolic Activation: NONE, Method: PREINCUBATION active; positive | Test System: AMES SALMONELLA TYPHIMURIUM, Strain/Indicator: TA100, Metabolic Activation: R,L,S-9, PHENOBARBITAL, Method: STANDARD PLATE active; positive | Test System: AMES SALMONELLA TYPHIMURIUM, Strain/Indicator: TA100, Metabolic Activation: RAT, LIVER, MICROSOMES, PHENOBARBITAL, Method: STANDARD PLATE active; positive | [2] active; positive | Test System: AMES SALMONELLA TYPHIMURIUM, Strain/Indicator: TA100, Metabolic Activation: RAT, LIVER, S-9, KC500 OR PHENOBARBITAL, Method: LIQUID SUSPENSION active; positive | Test System: AMES SALMONELLA TYPHIMURIUM, Strain/Indicator: TA100, Metabolic Activation: RAT, LIVER, S-9, PHENOBARBITAL, Method: PREINCUBATION active; positive | Test System: AMES SALMONELLA TYPHIMURIUM, Strain/Indicator: TA100, Metabolic Activation: RAT, LIVER, S-9, PHENOBARBITAL, Method: STANDARD PLATE active; positive | Test System: AMES SALMONELLA TYPHIMURIUM, Strain/Indicator: TA1538, Metabolic Activation: RAT, LIVER, S-9, AROCLOR 1254, Method: STANDARD PLATE active; positive | Test System: UDS HUMAN CELLS, Strain/Indicator: THY INCORP (NON-S-PHASE), Metabolic Activation: RAT, LIVER, S-9, PHENOBARBITAL, Method: LIQUID SCINTILLATION COUNTING active; positive | Test System: UDS HUMAN FIBROBLASTS, Strain/Indicator: THY INCORP (NON-S-PHASE), Metabolic Activation: MOUSE, LIVER, S-9, Method: AUTORADIOGRAPHY active; positive
inactive: Test System: AMES SALMONELLA TYPHIMURIUM, Strain/Indicator: TA98, Metabolic Activation: R,L,S-9, PHENOBARBITAL, Method: STANDARD PLATE inactive; negative | Test System: AMES SALMONELLA TYPHIMURIUM, Strain/Indicator: TA98, Metabolic Activation: RAT, LIVER, S-9, PHENOBARBITAL, Method: STANDARD PLATE inactive; negative
